Assay results: US20120264928A1, “THERAPEUTIC PHARMACEUTICAL AGENT FOR DISEASES ASSOCIATED WITH DECREASE IN FUNCTION OF GNE PROTEIN, FOOD COMPOSITION, AND FOOD ADDITIVE” (JAPAN HEALTH SCIENCES FOUNDATION, priority 2009, published 2012)

How the values were obtained:
[1] = system: primary cultured cells of myotubes derived from the DMRV human patients; test: Amount of NeuAc by HPLC in myotubes from DMRV human patients; assay type: cell-based; conditions: three days, N=3
Text: DMRV human patients are adult patients that have been diagnosed with DMRV by means of GNE gene mutation screening. (Number of patients: 42, the age of the onset of the disease: 20 to 30, sex: male and female) In accordance with a protocol approved by National Center of Neurology and Psychiatry, after obtaining informed consent, skeletal muscles (biceps brachii muscles and anterior tibial muscles) were collected from these patient volunteers under local anesthesia by means of biopsy.
The skeletal muscle tissues collected from the DMRV human patients or the model mice were lightly washed with PBS or Hank's balanced saline and were treated with 0.25% trypsin for 5 minutes. The tissues were finely cut into several millimeters with ophthalmic scissors, were digested with 0.4% collagenase II/0.25% trypsin at 37° C. for 30 minutes, and were left still to collect supernatant. The precipitate was again treated with the enzyme liquid. After being left still, the precipitate was well suspended in a DMEM-Ham's F-12 culture medium. The tissue suspension was passed through a nylon mesh to remove the tissues. The washings and the supernatant were centrifuged to collect cells. The cells thus collected were plated on a DMEM-Ham's F-12 culture medium at a cell density of 10^6 in a 100-mm plastic dish and were cultured at 37° C. in 5% CO2 for 4 to 7 days.
In the case that the sample was cultured cells, the cells were washed with PBS three times, and 400 p. 1 of 50 mM sulfuric acid was added to the cells. The cells were incubated at 80° C. for 60 minutes and were hydrolyzed to release NeuAc and NeuGc. In the case that the sample was a piece of tissue, the tissue was frozen, was pulverized with an air hammer, and was homogenized in a KCl-tris solution. […] The fluorescent derivative thus prepared was analyzed with HPLC (JASCO Corp.) using 0.05 to 5 nmol/μl Neu5Ac and Neu5Gc standards. The amount of protein from the tissue was measured with a Bio-Rad Protein Assay kit (Bio-Rad Laboratories).
[…] The amount of NeuAc in the cultured cells was measured by the HPLC method described above (N=3).

[2] = system: primary cultured cells of myotubes; test: Cytotoxicity of reagent in myotube culture; assay type: cell-based; conditions: high concentration
DMRV model mice [3] = test: Survival rate of treated DMRV model mice; assay type: in vivo; conditions: vs placebo group
Experimental: (§1) DMRV model mice were GNE^(−/−)hGNED176V-Tg described in Japanese Unexamined Patent Application Publication No. 2007-312641. Healthy litters having no GNE gene mutation were used as controls. The mice in the present example freely take water and feed and ingest 14 mg/kg body weight/day of N-acetylneuraminic acid compound on average.
(§2) 20 mg/kg body weight/day of ManNAc (N=6), NeuAc (N=5), or sialyllactose (N=7) dissolved in drinking water was administered to the DMRV model mice between 11- to 15-week old and 56- to 58-week old for 43 to 45 weeks. 40 mg (N=5) or 400 mg/kg body weight/day (N=4) of Ac4ManNAc dissolved in drinking water was administered to the DMRV model mice of the same ages for 43 to 47 weeks. Drinking water free of the pharmaceutical agents was supplied to mice in a placebo group.
(§3) During the administration of the pharmaceutical agent, the measurement of the body weight, the determination of the survival rate, blood collection (0, 25, and 49 days after the start of administration, and thereafter at intervals of 28 days), and a hanging test (0 and 49 days after the start of administration, and thereafter at intervals of 56 days) were performed at regular intervals. Survivors after the administration (ManNAc-treated group: N=5, NeuAc-treated group: N=5, sialyllactose group: N=6) were subjected to a treadmill test. A muscle tissue was then excised and was subjected to a muscle contraction test, the measurement of the amount of NeuAc, and pathological observation.

DMRV model mice [4] = test: Amount of NeuAc in muscle tissue of treated DMRV model mice; assay type: in vivo; conditions: vs placebo group
Experimental: as §1
In the case that the sample was cultured cells, the cells were washed with PBS three times, and 400 p. 1 of 50 mM sulfuric acid was added to the cells. The cells were incubated at 80° C. for 60 minutes and were hydrolyzed to release NeuAc and NeuGc. In the case that the sample was a piece of tissue, the tissue was frozen, was pulverized with an air hammer, and was homogenized in a KCl-tris solution. The precipitate was again washed with the KCl-tris solution and was hydrolyzed in 50 mM sulfuric acid at 80° C. for one hour to release NeuAc and NeuGc. 400 μl of 7 mmol 1,2-diamino-4,5-methylenedioxybenzene, dihydrochloride (MDB, Dojindo Laboratories) solution (15.8 mg MDB, 48.8 mg Na2S2O4, and 735 μl 2-mercaptoethanol were dissolved in distilled water so as to prepare a 10-ml solution) was added to the sample containing free NeuAc and NeuGc and was allowed to react at 60° C. for 2.5 hours. The fluorescent derivative thus prepared was analyzed with HPLC (JASCO Corp.) using 0.05 to 5 nmol/μl Neu5Ac and Neu5Gc standards. The amount of protein from the tissue was measured with a Bio-Rad Protein Assay kit (Bio-Rad Laboratories).
as §2, §3

DMRV model mice [5] = test: Treadmill test, motor ability test; assay type: in vivo; conditions: vs placebo group
Experimental: as §2, §3
In order to familiarize a mouse with the apparatus, training was started one week prior to testing. In this period, the mouse was made to run on a slope of 7 degrees at a velocity in the range of 5 to 15 m/min for 30 minutes every day for 7 days. As a motor ability test, the velocity was increased by 10 m/min per minute from the initial velocity of 20 m/min. The accumulated running distance up to the point where the mouse could not run anymore was measured. As an endurance test, a mouse was made to run on a slope of 7 degrees at a velocity of 20 m/min for 60 minutes. The mouse was then made to run for another 3 minutes, during which the times of the electrical stimulation given to the mouse by a stimulation grid disposed at the end of the running lane were measured.

DMRV model mice [6] = test: Blood creatine kinase activity; assay type: in vivo; conditions: 20 mg/kg body weight/day in drinking water; vs placebo group
Experimental: as §2, §3
During the administration of the pharmaceutical agent, blood was collected from a tail of a mouse at regular intervals. The blood was centrifuged to prepare blood serum. Blood creatine activity was measured with a Determiner CPK-L kit (Kyowa Medex Co., Ltd.). The blood serum was electrophoresed using a Titan Gel Isoenzyme kit (Helen Laboratories) to identify creatine kinase. It is known that creatine kinase moves into blood when strenuous exercise or myopathy damages muscle fibers.

DMRV model mice [7] = test: Number of formed rimmed vacuoles and amyloid-positive cells; assay type: in vivo; conditions: 20 mg/kg body weight/day in drinking water; vs placebo group
Experimental: as §2, §3
In six H-E stained pathological sections having a thickness of 10 μm prepared at intervals of 100 μm, the number of rimmed vacuoles observed over the cross section of the muscular tissue was counted. In order to count the number of amyloid-positive protein deposits, the number of cells having deposits labeled with an anti-amyloid antibody (6E10) observed over the cross section of the muscular tissue was counted in six sections having a thickness of 10 μm prepared at intervals of 100 μm.

[8] = system: cells of animals having GNE gene mutation and normal animals; conditions: cited from earlier work
[9] = in vivo; cited from earlier work
[10] = administration of free N-acetylneuraminic acid; cited from earlier work
[11] = final concentration 0.005, 0.05, 0.5 or 5 mM
[12] = 20 mg/kg body weight/day in drinking water, 43 to 45 weeks
[13] = 20 mg/kg body weight/day in drinking water

| SMILES | amount of NeuAc in the cells ([1]; final concentration 0.0002, 0.002, 0.02 or 0.2 mM) | cytotoxicity [2] | survival rate (DMRV model mice [3]; 40 or 400 mg/kg body weight/day in drinking water, 43 to 47 weeks) | amount of NeuAc in the muscle tissue (DMRV model mice [4]; 400 mg/kg) | accumulated running distance (DMRV model mice [5]; 400 mg/kg) | amount of NeuAc in the cells [1, 11] | survival rate (DMRV model mice [3]; [12]) | amount of NeuAc in the muscle tissue (DMRV model mice [4]; [13]) | blood creatine kinase activity (DMRV model mice [6]) | accumulated running distance (DMRV model mice [5]; [13]) | number of amyloid positive cells (DMRV model mice [7]) | number of rimmed vacuoles (DMRV model mice [7]) | incorporation into cells [8] | half-life in the blood of animals [9] | effect of increasing N-acetylneuraminic acid in ganglioside [10] |
| --- | --- | --- | --- | --- | --- | --- | --- | --- | --- | --- | --- | --- | --- | --- | --- |
| CC(=O)N[C@@H]1C(OC(C)=O)O[C@H](COC(C)=O)[C@@H](OC(C)=O)[C@@H]1OC(C)=O (stereo partly shown) [Ac4ManNAc, Tetra-O-acetyl-N-acetylmannosamine] | effective in increasing the amount of NeuAc at low concentrations in a manner that depended on its dose | has cytotoxicity when the Ac4ManNAc concentration is high | higher | significantly higher | significantly higher |  |  |  |  |  |  |  |  |  |  |
| CC(=O)N[C@@H]1C(O)O[C@H](CO)[C@@H](O)[C@@H]1O (stereo partly shown) [ManNAc, N-acetylmannosamine, reference compound] |  |  |  |  |  | effective in increasing the amount of NeuAc in the cells in a manner that depended on their doses | significantly higher | significantly higher | significantly lower | significantly higher | significantly lower | significantly lower |  |  |  |
| CC(=O)N[C@H]1[C@H]([C@H](O)[C@H](O)CO)OC(O)(C(=O)O)C[C@@H]1O (stereo partly shown) [NeuAc, N-acetylneuraminic acid] |  |  |  |  |  | effective in increasing the amount of NeuAc in the cells in a manner that depended on their doses | significantly higher | significantly higher | significantly lower | significantly higher | significantly lower | significantly lower | difficult to incorporate into cells | very short | no particular effect |
| CC(=O)N[C@H]1[C@H]([C@H](O)[C@H](O)CO)O[C@@](O[C@H]2[C@@H](O)[C@@H](CO)O[C@@H](O[C@H]3[C@H](O)[C@@H](O)C(O)O[C@@H]3CO)[C@@H]2O)(C(=O)O)C[C@@H]1O (stereo partly shown) [sialyllactose, NeuAcα2-3Galβ1-4Glc] |  |  |  |  |  |  | significantly higher | significantly higher | significantly lower | significantly higher | significantly lower | significantly lower |  |  |  |
